Read-outs that look alike come from different tables or passages of the source.
Tests used:
[1] = system: Diabrotica balteata; test: Transovarial effects on Diabrotica balteata adults fed on sprayed bean plants (% egg mortality); assay type: in vivo; conditions: for mortality at 10 ppm / mortality at 25 ppm / mortality at 50 ppm: Diabrotica balteata; for Transovarial effects on treated adults of Diabrotica balteata: at the used dose rates
Experimental: The following IGRs in Table 1 were tested for their transovarial effects on Diabrotica balteata by observing percentage egg mortality.
Bean plants (Phaseolus vulgaris, var. Amata) were treated in an automatic spray chamber (ARO-1) with around 500 l/ha. After drying of the spray deposits, plants were placed in gauze cages and infested with newly hatched (0-24 h old) Diabrotica balteata adults. After seven days, treated plants were removed and replaced by non-treated plants. From day seven to day 38 eggs were collected in three-day intervals, counted and checked on number of hatched larvae (% egg mortality). Percentage egg mortality was calculated as the number of unhatched eggs per total number of eggs laid.

[2] = system: Spodoptera frugiperda; test: Foliar spray application on cotton, larval mortality of Spodoptera frugiperda; assay type: in vivo; conditions: 4 DAT (days after treatment)
From the text: For example on both Spodoptera frugiperda and Plutella xylostella similar activities were obtained for the same rates: […]

[3] = egg laying period 1, read-out: % egg mortality: on egg laying period 1
[4] = egg laying period 2, read-out: % egg mortality: on egg laying period 2
[5] = egg laying period 3, read-out: % egg mortality: on egg laying period 3
[6] = egg laying period 4, read-out: % egg mortality: on egg laying period 4
[7] = egg laying period 5, read-out: % egg mortality: on egg laying period 5
[8] = egg laying period 6, read-out: % egg mortality: on egg laying period 6
[9] = egg laying period 7, read-out: % egg mortality: on egg laying period 7
[10] = egg laying period 8, read-out: % egg mortality: on egg laying period 8

Compound | mortality at 10 ppm [1, 3] | mortality at 10 ppm [1, 4] | mortality at 10 ppm [1, 5] | mortality at 10 ppm [1, 6] | mortality at 10 ppm [1, 7] | mortality at 10 ppm [1, 8] | mortality at 25 ppm [1, 3] | mortality at 25 ppm [1, 4] | mortality at 25 ppm [1, 5] | mortality at 25 ppm [1, 6] | mortality at 25 ppm [1, 8] | mortality at 50 ppm [1, 4] | mortality at 50 ppm [1, 5] | mortality at 50 ppm [1, 6] | mortality at 50 ppm [1, 7] | mortality at 50 ppm [1, 8] | Spray interval ([1]; Rate 12.5 g AI/ha) | Spray interval ([1]; Rate 25 g AI/ha) | Transovarial effects on treated adults of Diabrotica balteata [1] | mortality at 50 ppm [1, 9] | further results
O=C(NC(=O)c1c(F)cccc1F)Nc1cc(Cl)c(OC(F)(F)C(F)F)c(Cl)c1 [Consult, Hexaflumuron] | 75% | 36% | 7% | 8% | 9% | 10% | 97% | 93% | 15% | 11% | 11% | 92% | 15% | 22% | 48% | 15% | 5 days | 5 days | Transovarial effects can be observed |  | Spray interval (days) ([1]; Rate 5 g AI/ha): Insufficient
O=C(NC(=O)c1c(F)cccc1F)Nc1ccc(Cl)cc1 [Dimilin, Diflubenzuron] | 0% | 11% | 6% | 10% | 9% | 12% | 0% | 7% | 5% | 5% | 10% | 16% | 3% | 5% | 7% | 7% |  |  | transovarially inactive | 8% | 
O=C(NC(=O)c1c(F)cccc1F)Nc1ccc(Oc2ccc(C(F)(F)F)cc2Cl)cc1F [Cascade, Flufenoxuron] | 69% | 22% | 91% | 10% | 9% | 8% | 100% | 100% | 98% | 64% | 14% | 100% | 100% | 64% | 13% | 6% | 7 days | 7 days | Transovarial effects can be observed | 11% | mortality at 10 ppm [1, 9]: 8%; mortality at 10 ppm [1, 10]: 8%; mortality at 25 ppm [1, 9]: 9%; mortality at 50 ppm [1, 10]: 9%; Spray interval ([1]; Rate 5 g AI/ha): 7 days
COc1cccc(C(=O)NN(C(=O)c2cc(C)cc(C)c2)C(C)(C)C)c1C [Intrepid, Methoxyfenozide] | 7% | 8% | 9% | 7% |  |  | 13% | 13% | 7% | 11% |  | 14% | 10% | 9% |  |  |  |  | transovarially inactive |  | 
O=C(NC(=O)c1c(F)cccc1F)Nc1cc(Cl)c(OC(F)(F)C(F)C(F)(F)F)cc1Cl (stereo not shown) [Match, Lufenuron] | 100% | 100% | 73% | 17% | 8% | 9% | 100% | 100% | 85% | 15% | 8% | 100% | 96% | 50% | 40% | 9% | 7 days | 7 days | Transovarial effects can be observed | 8% | total number of sterilised (unhatched) eggs, considered over the whole test period ([1]; 5 g AI ha^-1): ~20%; total number of sterilised (unhatched) eggs, considered over the whole test period ([1]; 12.5 g AI ha^-1): ≈ 25%; total number of sterilised (unhatched) eggs, considered over the whole test period ([1]; 25 g AI ha^-1): ≈ 25%; mortality at 10 ppm [1, 9]: 12%; mortality at 10 ppm [1, 10]: 8%; mortality at 25 ppm [1, 9]: 9%; mortality at 50 ppm [1, 10]: 8%; Spray interval ([1]; Rate 5 g AI/ha): 5 days; LC50 [2]: LC50 = 1 ppm
CCc1ccc(C(=O)NN(C(=O)c2cc(C)cc(C)c2)C(C)(C)C)cc1 [Mimic, Tebufenozide] | 7% | 9% | 8% | 11% |  |  | 9% | 13% | 9% | 10% |  | 10% | 10% | 13% |  |  |  |  | transovarially inactive |  | 
O=C(NC(=O)c1c(F)cccc1F)Nc1cc(Cl)c(F)c(Cl)c1F [Nomolt, Teflubenzuron] | 40% | 15% | 7% | 11% | 8% | 14% | 76% | 48% | 34% | 11% | 13% | 67% | 14% | 11% | 13% | 10% |  | 3 days | Transovarial effects can be observed |  | Spray interval (days) ([1]; Rate 5 g AI/ha): Insufficient; Spray interval (days) ([1]; Rate 12.5 g AI/ha): Insufficient

— US20150087622A1, “NEW METHOD OF USE OF A PESTICIDE” (SYNGENTA PARTICIPATIONS AG, priority 2012, published 2015)
